Measurements reported in the NIST ThermoML archive (doi:10.1021/je800159w).

What was measured:
[1] = refractive index (Na D-line) (dimensionless); xn = mol fraction of the nth substance listed; settings: 298.15 K, 101 kPa, Liquid, Standard Abbe refractometry
[2] = xn = mol fraction of the nth substance listed; settings: 101 kPa, Liquid
[3] = refractive index (Na D-line) (dimensionless); settings: 101.33 kPa, Liquid, Standard Abbe refractometry
[4] = Liquid

CCOS(=O)(=O)[O-].CC[n+]1cccc(C)c1 [1-ethyl-3-methylpyridinium ethylsulfate] + O
[1]
Settings	refractive index
x2 = 0.0526	1.50583
x2 = 0.1412	1.50427
x2 = 0.2445	1.50193
x2 = 0.3233	1.49986
x2 = 0.4174	1.49685
x2 = 0.4972	1.49329
x2 = 0.588	1.48806
x2 = 0.6975	1.47838
x2 = 0.7928	1.46398
x2 = 0.9005	1.42959
x2 = 0.9484	1.39796

[2]
Settings	mass density, 298.15 K [kg/m3]	mass density, 313.15 K [kg/m3]	mass density, 328.15 K [kg/m3]	viscosity, 298.15 K [mPa·s]	viscosity, 313.15 K [mPa·s]	viscosity, 328.15 K [mPa·s]
x2 = 0.0526	1221.69	1211.82	1202.02	127.6	60.5	34.93
x2 = 0.1412	1220.12	1210.22	1200.35	102.1	50.28	29.83
x2 = 0.2445	1217.8	1207.83	1198.02	77.9	39.91	23.49
x2 = 0.3233	1215.58	1205.62	1195.72	62.3	32.92	19.76
x2 = 0.4174	1212.21	1202.21	1192.23	46.87	24.86	15.51
x2 = 0.4972	1208.39	1198.31	1188.24	36.11	20.36	12.78
x2 = 0.588	1202.53	1192.32	1182.14	26.83	15.52	9.894
x2 = 0.6975	1191.35	1180.92	1170.42	17.72	10.5	6.847
x2 = 0.7928	1174.05	1163.41	1152.61	11.18	6.778	4.508
x2 = 0.9005	1129.44	1119.24	1108.66	4.927	3.161	2.197
x2 = 0.9484	1086.2	1077.5	1068	2.717	1.818	1.315

CCO [ethanol] + CCOS(=O)(=O)[O-].CC[n+]1cccc(C)c1
Settings	refractive index
[1], x1 = 1	1.36023

[2], x1 = 1
Settings	mass density [kg/m3]	viscosity [mPa·s]
298.15 K	785.46	1.082
313.15 K	772	0.827
328.15 K	758.55	0.641

CCOS(=O)(=O)[O-].CC[n+]1cccc(C)c1 [1-ethyl-3-methylpyridinium ethylsulfate]
[3]
Settings	refractive index
298.15 K	1.50666
303.15 K	1.50525
308.15 K	1.50386
313.15 K	1.50246
318.15 K	1.50106
323.15 K	1.49965
328.15 K	1.49825
333.15 K	1.49683
338.15 K	1.4954
343.15 K	1.49361

[4], 101.33 kPa
Settings	mass density [kg/m3]	viscosity [mPa·s]
298.15 K	1222.26	161.4
303.15 K	1219.02	123.6
308.15 K	1215.78	96.9
313.15 K	1212.54	77.1
318.15 K	1209.39	62.2
323.15 K	1206.13	50.55
328.15 K	1202.86	42.32
333.15 K	1199.63	35.52
338.15 K	1196.43	30.11
343.15 K	1193.25	25.69

CCO [ethanol]
Settings	refractive index
[3], 298.15 K	1.36023

[4], 101 kPa
Settings	mass density [kg/m3]	viscosity [mPa·s]
298.15 K	785.46	1.082
313.15 K	772	0.827
328.15 K	758.55	0.641
